Experimental data taken from patent publication US10034879B2, “Substituted benzaldehyde compounds and methods for their use in increasing tissue oxygenation” (Global Blood Therapeutics, Inc., priority 2011, dated 2018).

Target: T1, purified HBS (Homo sapiens, UniProt P68871+P69905, E7V)
T1 construct: HbS is purified by the CRO VIRUSYS, from blood obtained from homozygous sickle cell patients; tissue VIRUSYS (CRO that did the purification); host or cells: blood of homozygous sickle cell patients
Assay: HbS polymerization assay (delay time)
Assay type: biochemical
Conditions: 50 μM purified HBS, 1.8 M potassium phosphate pH 7.4
Procedure: Polymerization assays are carried out in vitro using purified HBS exchanged into 1.8 M potassium phosphate buffer at pH 7.4. Using a slightly modified protocol (Antonini and Brunori, 1971), HbS is purified by the CRO VIRUSYS, from blood obtained from homozygous sickle cell patients through the Hemoglobinopathy Center at Children's Hospital Oakland Research Institute (CHORI) with Institutional Review Board approval. Compounds are prepared in 100% DMSO and a desired amount is added to 50 μM of purified HBS at a final DMSO concentration of 0.3%. Final potassium phosphate concentration is adjusted to 1.8 M using a combination of 2.5 M potassium phosphate stock solution and water at pH 7.4. The reaction mixture is incubated for an hour at 37° C. and then transferred into a 24-well plate for deoxygenation in a glove box containing 99.5% nitrogen and 0.5% oxygen. The 24-well plate is not covered and incubated at 4° C. on a plate cooler inside the glove box for one and a half hours. Fifty μL of the reaction mixture is transferred into a 96-well plate and the absorbance at 700 nm is measured every minute for one hour at 37° C. in a plate reader located inside the glove box. A plot of the absorbance against time is fitted using a Boltzman sigmoidal fit and the delay time (from zero to time at half Vmax) is measured. To compare and rank compounds, delay times are expressed as percent delay (% DT), which is defined as the difference in delay times for HBS/compound and HBS alone multiplied by 100 and divided by the delay time for HBS alone.
Compounds listed below have been tested in the polymerization assay. Activity ranges are defined by the number of dagger (†) symbols indicated. † denotes activity ≤40% but ≤80%; †† denotes activity >80% but ≤120%; ††† denotes activity >120% but ≤140%; †††† denotes activity >160%.

% delta Delay: †† (†† denotes activity >80% but ≤120%)
Compound: CC(C)n1nccc1-c1ncccc1COc1cccc(O)c1C=O [Compound 43, 2-hydroxy-6-((2-(1-isopropyl-1H-pyrazol-5-yl)pyridin-3-yl)methoxy)benzaldehyde]
